Test results published in patent publication US11358936B2, “Lysyl oxidase-like 2 inhibitors and uses thereof” (PharmAkea, Inc., priority 2015, dated 2022).
Structures can show the parent of a compound that is named as a salt.

The compounds below were run against human LOXL2 (Homo sapiens (Human), UniProt Q9Y4K0) (assay: Human LOXL2 Amine Oxidase Activity Assay (Amplex Red fluorescence)). Conditions: IC50, concentrated conditioned media from CHO cells stably expressing human LOXL2; 2 h at 37° C. preincubation; DAP substrate.
Assay type: biochemical
Procedure: LOXL2 amine oxidase activity is evaluated by measuring Amplex Red fluorescence using 10-20× concentrated conditioned media from CHO cells stably expressing human LOXL2. To assay for amine oxidase activity, 10 μL of the concentrated conditioned media is incubated with 2 μL of test compound in DMSO and 73 μL Assay Buffer (50 mM Borate Buffer, pH8) for 2 h at 37° C. After the 2 h incubation, 5 μl of 10 mM 1,5-Diaminopentane (DAP) diluted in Assay Buffer and 10 μl of Amplex Red Mix (8.5 μl Assay Buffer+0.5 μl of 10 mM Amplex Red+1 μl of 500 U/ml Horseradish Peroxidase) are added and the plate mixed and immediately placed on the FlexStaion for fluorescence measurements. Fluorescence is read in kinetic mode every 2 min for 1 hour at excitation=544 and emission=590. The amine oxidase activity is calculated from the slope of the linear portion of the curve.

human LOXL2, sequence (Q9Y4K0 26-774): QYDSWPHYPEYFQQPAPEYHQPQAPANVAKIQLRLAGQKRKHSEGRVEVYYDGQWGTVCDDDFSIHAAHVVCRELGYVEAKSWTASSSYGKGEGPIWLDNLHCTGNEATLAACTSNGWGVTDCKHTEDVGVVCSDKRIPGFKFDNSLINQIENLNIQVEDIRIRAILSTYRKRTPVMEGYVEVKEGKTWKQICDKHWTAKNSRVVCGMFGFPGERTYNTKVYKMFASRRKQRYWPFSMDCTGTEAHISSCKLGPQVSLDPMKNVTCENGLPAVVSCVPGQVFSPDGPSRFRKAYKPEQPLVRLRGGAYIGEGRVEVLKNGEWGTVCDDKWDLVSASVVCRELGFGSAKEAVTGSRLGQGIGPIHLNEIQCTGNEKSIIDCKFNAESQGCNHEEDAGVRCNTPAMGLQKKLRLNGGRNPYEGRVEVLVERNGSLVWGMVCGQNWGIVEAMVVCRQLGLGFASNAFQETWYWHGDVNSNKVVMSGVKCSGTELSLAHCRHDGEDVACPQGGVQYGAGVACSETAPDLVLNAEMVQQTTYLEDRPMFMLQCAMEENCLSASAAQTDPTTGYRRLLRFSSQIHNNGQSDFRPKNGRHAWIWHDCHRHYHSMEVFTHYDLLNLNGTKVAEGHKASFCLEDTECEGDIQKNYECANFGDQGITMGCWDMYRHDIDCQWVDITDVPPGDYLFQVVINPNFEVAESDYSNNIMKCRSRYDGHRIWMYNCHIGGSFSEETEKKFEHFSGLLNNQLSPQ

Work on `NCc1ccnc(NC(=O)CC(F)(F)F)c1` [Compound 4-14, trifluoroacetate] yielded an IC50 of 300 to 1000 nM.

Same assay, conditions: concentrated conditioned media from CHO cells stably expressing human LOXL2; 2 h at 37° C. preincubation; DAP substrate; read-out: IC50

`COc1ccc(CN2C(=O)CCc3c(Oc4cc(CN)ccn4)cccc32)cn1` [Compound 2-37, 5-((4-(Aminomethyl)pyridin-2-yl)oxy)-1-((6-methoxypyridin-3-yl)methyl)-3,4-dihydroquinolin-2(1H)-one acetate] and `NCc1ccnc(Oc2ccc(F)cc2)c1` [Compound 4-8, 2-(4-Fluorophenoxy)-4-(aminomethyl)pyridine] cannot be ordered by IC50: < 300 nM for the first, < 300 nM for the second.

`NCc1ccnc(O[C@H]2CCCN(C(=O)c3ccccc3)C2)c1` [Compound 2-38, (S)-(3-((4-(Aminomethyl)pyridin-2-yl)oxy)piperidin-1-yl)(phenyl)methanone trifluoroacetate] and `NCc1ccnc(O[C@H]2CCCN(C(=O)Nc3ccccc3)C2)c1` [Compound 2-39, (A)-3-((4-(Aminomethyl)pyridin-2-yl)oxy)-N-phenylpiperidine-1-carboxamide trifluoroacetate] cannot be ordered by IC50: < 300 nM for the first, < 300 nM for the second.

`Cc1ccc(C(=O)Nc2cc(CN)ccn2)c(F)c1` [Compound 2-42, N-(4-(Aminomethyl)pyridin-2-yl)-2-fluoro-4-methylbenzamide trifluoroacetate] and `NCc1ccnc(NC(=O)Cc2ccc(Cl)c(Cl)c2)c1` [Compound 2-43, N-(4-(Aminomethyl)pyridin-2-yl)-2-(3,4-dichlorophenyl)acetamide trifluoroacetate] fall in the same range of IC50: 300 to 1000 nM for the first, 300 to 1000 nM for the second.

First: CN(C)c1cc(CN)cc(Oc2cccc(Oc3ccccc3)c2)n1 [Compound 3-1, 4-(Aminomethyl)-N,N-dimethyl-6-(3-phenoxyphenoxy)pyridin-2-amine hydrochloride]
Second: COCCNc1cc(CN)cc(Oc2cccc(Oc3ccccc3)c2)n1 [Compound 3-2, 4-(Aminomethyl)-N-(2-methoxyethyl)-6-(3-phenoxyphenoxy)pyridin-2-amine trifluoroacetate]
The IC50 of the first is higher: > 1000 nM for the first, 300 to 1000 nM for the second.

First: NCc1cc(Oc2cccc(Oc3ccccc3)c2)nc(-c2ccc(F)cc2)c1 [Compound 3-3, (2-(4-Fluorophenyl)-6-(3-phenoxyphenoxy)pyridin-4-yl)methanamine trifluoroacetate]
Second: NCc1ccnc(OCc2ccccc2)c1 [Compound 4-6, 2-Benzyloxy-4-(aminomethyl)pyridine]
The IC50 of the first is lower: 300 to 1000 nM for the first, > 1000 nM for the second. The first is the more potent here.

First: NCc1cccnc1F [Compound 4-1, 2-Fluoro-3-(aminomethyl)pyridine]
Second: NCc1ccncc1F [Compound 4-2, 3-Fluoro-4-(aminomethyl)pyridine]
The IC50 of the first is higher: > 1000 nM for the first, 300 to 1000 nM for the second.

Compared with `NCc1ccnc(F)c1` [Compound 4-3, 2-Fluoro-4-(aminomethyl)pyridine], `NCc1ccnc(Cl)c1` [Compound 4-5, 2-Chloro-4-(aminomethyl)pyridine] is lower in IC50: 300 to 1000 nM for the first, < 300 nM for the second. The second is the more potent here.

Going from `NCc1ccnc(OC2CCCCC2)c1` [Compound 4-7, 2-Cyclohexyloxy-4-(aminomethyl)pyridine] to `NCc1ccnc(N2CCCC2)c1` [Compound 4-10, 2-(1-Pyrrolidino)-4-(aminomethyl)pyridine], the IC50 rises from < 300 nM to > 1000 nM. The first is the more potent here.

`NCc1ccnc(Oc2ccccc2C(F)(F)F)c1` [Compound 4-9, 2-(2-Trifluoromethylphenoxy)-4-(aminomethyl)pyridine] and `NCc1ccnc(-n2ccnc2)c1` [Compound 4-11, 2-(Imidazol-1-yl)-4-(aminomethyl)pyridine] cannot be ordered by IC50: < 300 nM for the first, < 300 nM for the second.

Compared with `CCN1CCN(c2cc(CN)ccn2)CC1` [Compound 4-12, 2-(4-Ethylpiperazin-1-yl)-4-(aminomethyl)pyridine], `COCCNC(=O)c1cc(CN)ccn1` [Compound 4-13, 4-(Aminomethyl)-N-(2-methoxyethyl)picolinamide hydrochloride] is lower in IC50: > 1000 nM for the first, < 300 nM for the second. The second is the more potent here.
